One assay has as its system claudin-14 mRNA. Briefly: claudin-14 mRNA levels in mouse kidney after systemic treatment (real-time PCR). Format: in vivo. The settings on record: for claudin-14 mRNA, change: 30 mg/kg BW−1 per day for 6 days, 24 hrs following the last treatment; for claudin-14 mRNA relative to control level: by 8 hrs and through to 12 hrs. Here is the method: NPS2143 and cinacalcet (Table 1) were dissolved in vehicle—20% (w/v) (2-Hydroxypropyl)-β-cyclodextrin solution and fed to mice with gavage syringe. Cyclosporin-A (Sandimmune; Table 1) was diluted in 0.9% saline and I.P. injected to animals. Control animals received vehicle injection (13% wiv Cremophor EL and 32.9% ethanol). For dietary Ca^2+ manipulation, animals were fed with the following diets for six consecutive days: basal diet: 0.61% Ca^2+ (TestDiet #5755); low Ca^2+ diet: 0 Ca^++ (TestDiet #5855); high Ca^2+ diet: 5% Ca^2+ (TestDiet #5AVB). All animals had free access to water and were housed under a 12 hr light cycle. Blood samples were taken by cardiac puncture rapidly after initiation of terminal anesthesia and centrifuged at 4° C. for 10 min. Kidney were dissected out and immediately frozen at −80° C.
(§1) Total RNA including microRNA was extracted using Trizol (Invitrogen). Cellular mRNA was reverse transcribed using the Superscript-III kit (Invitrogen), followed by real-time PCR amplification using SYBR Green PCR Master Mix (Bio-Rad) and Eppendorf Realplex2S system. The design of claudin-14 primers was described above. The design of pri-miRNA primers was according to Ma et al., (2010). Results were expressed as 2^−ΔCt values with ΔCT=Ctgene−Ctβ-actin.
SAHA and TsA were dissolved in 5% (w/v) ethanol/0.9% saline solution and fed to mice with gavage syringe. Furosemide was dissolved in 50% (w/v) DMSO/0.9% saline solution and I.P. injected to animals. All animals had free access to water and were housed under a 12 hr light cycle. Blood samples were taken by cardiac puncture rapidly after initiation of terminal anesthesia and centrifuged at 4° C. for 10 min. Kidney were dissected out and immediately frozen at −80° C.
Total RNA including microRNA was extracted using Trizol (Invitrogen). Cellular mRNA was reverse transcribed using the Superscript-III kit (Invitrogen), followed by real-time PCR amplification using SYBR Green PCR Master Mix (Bio-Rad) and Eppendorf Realplex2S system. The design of claudin-14 primers was described before by Gong et al., 2012. The design of pri-miRNA primers and ChIP primers was according to Gong et al., 2013. Results were expressed as 2^−ΔCt values with ΔCT=Ctgene−Ctβ-actin. […]
NPS2143 and cinacalcet (Table 9) were dissolved in vehicle −20% (w/v) (2-Hydroxypropyl)-β-cyclodextrin solution and fed to mice with gavage syringe. Cyclosporin-A (Sandimmune; Table 9) was diluted in 0.9% saline and I.P. injected to animals. Control animals received CNI vehicle injection (13% wiv Cremophor EL and 32.9% ethanol). FK506 was dissolved in CNI vehicle, diluted in 0.9% saline and I.P. injected to animals. For dietary Ca^+ manipulation, animals were fed with the following diets for six consecutive days: basal diet: 0.610% Ca^++ (TestDiet #5755); low Ca^++ diet: 0 Ca^++ (TestDiet #5855); high Ca^++ diet: 5% Ca^+ (TestDiet #5AVB). All animals had free access to water and were housed under a 12 hr light cycle. Blood samples were taken by cardiac puncture rapidly after initiation of terminal anesthesia and centrifuged at 4° C. for 10 min. Kidney were dissected out and immediately frozen at −80° C.
Total RNA including microRNA was extracted using Trizol (Invitrogen). Cellular mRNA was reverse transcribed using the Superscript-III kit (Invitrogen), followed by real-time PCR amplification using SYBR Green PCR Master Mix (Bio-Rad) and Eppendorf Realplex2S system. The design of claudin-14 primers was described before by Gong. Y., et al., 2012. The design of pri-miRNA primers was according to Ma. L., et al., 2010. Results were expressed as 2^−ΔCt values with ΔCT=Ctgene−Ctβ-actin.
On the technique in general: Quantitative PCR measures a nucleic acid by following its amplification.

Another assay concerns pri-miR-9-2. Nature of the assay: pri-miR-9-2 transcript levels in TALH of treated mouse kidneys (real-time PCR). Format: in vivo. The settings on record: 30 mg/kg BW−1; 2 hrs or 8 hrs.
From the text: as §1
To measure the transcriptional level for microRNA gene in vivo in the kidney, the inventors designed primers (see Methods; Table 2) to amplify the pri-miRNA molecule, the original transcript for microRNA gene that had not yet been subjected to any nuclear or cellular processing. Because both miR-9 and miR-374 had broader localization profiles along the nephron, the inventors isolated the TALH tubular cells for pri-miRNA analyses from the mouse kidney described elsewhere in this study. WT mice (strain: C57BL/6) were treated with NPS2143 or cinacalcet as described for claudin-14 analyses and assayed for pri-miRNA levels in isolated TALH cells at 2 hrs and 8 hrs respectively. […] NPS2143 and cinacalcet also profoundly regulated pri-miR-374. […]
Total RNA including microRNA was extracted using Trizol (Invitrogen). […] Results were expressed as 2^−ΔCt values with ΔCT=Ctgene−Ctβ-actin.

A further assay concerns miR-9-1 promoter. Briefly: ChIP over miR-9-1 promoter in TALH cells of treated mice. Format: in vivo, mouse. The conditions noted are these: for fold enrichment of NFATc1 over miR-9-1 promoter region: versus vehicle. Here is the method:
(§2) Freshly isolated TALH cells or primary TALH cell cultures were cross-linked in 1% paraformaldehyde (pH7.0) for 10 min at room temperature. The cross-linked cells were lysed following to instruction of MAGnify ChIP system (Invitrogen). Chromatin was sonicated into 500 bp fragments with Bioruptor UCD-200 (High power, 15 cycles of 30 seconds ON, 30 seconds OFF; Diagenode). Sheared chromatin was precipitated with antibody-bound Dynabeads (Invitrogen). Following reverse crosslink and DNA extraction, antibody-bound DNA was eluted and analyzed with real-time PCR. Two criteria for normalization were applied: fold enrichment over anti-IgG background signal and input control over chromatin input signal.
as §2, with “OFF,” for “OFF;”

Where [1] appears, read: TPTX mice, single dose 30 mg/kg BW−1, 2 hrs.
The mark [2] stands for this setting: cyclosporine-A pre-treated animals, 30 mg/kg BW−1, 2 hrs.
Where [3] appears, read: second dose 30 mg/kg BW−1 at 12 hrs, measured at 14 hrs.
Setting [4] is: single oral dose 30 mg/kg BW−1, 30 mg/kg.

Values joined by “and” are separate entries in the source; they are usually repeats but may differ in a detail not shown here. Equal entries are not always repeated. “Also recorded” adds a separate entry of the source.

On to `C[C@@H](NCCCc1cccc(C(F)(F)F)c1)c1cccc2ccccc12` [cinacalcet], for which the “claudin-14 expression, induction (dose response)” value in the assay on claudin-14 mRNA (15 mg/kg BW−1, 2 hrs) is 2.33 fold; with claudin-14 mRNA (30 mg/kg BW−1, 2 hrs), 3.17 fold; in the assay with claudin-14 mRNA (45 mg/kg BW−1, 2 hrs), 6.38 fold. Besides, the “claudin-14 mRNA, change” value with claudin-14 mRNA is listed as “Neither NPS2143 nor cinacalcet caused changes”. The “claudin-14 expression levels, upregulation” value with claudin-14 mRNA (setting [1]) is 3.41 fold. Moreover, the “claudin-14 mRNA levels, increase” value turned out to be 1.73 fold in the assay with claudin-14 mRNA (setting [2]) and 3.23 fold in the assay with claudin-14 mRNA (setting [3]). Further, the “claudin-14 mRNA level, upregulation” value in the assay on claudin-14 mRNA (single oral dose 30 mg/kg BW−1, 2 hrs, intact mice, versus vehicle) is given as 3.3 fold. The “claudin-14 mRNA level, upregulation (ceiling)” value in the assay with claudin-14 mRNA (single oral dose 30 mg/kg BW−1, 4 hrs, versus vehicle, 30 mg/kg) was 3.97 fold and 3.98 fold. In addition, in the assay on claudin-14 mRNA (setting [4]), the “claudin-14 mRNA relative to control level” value was “recovered to its control level; also recorded: no significant change”. Moreover, the “pri-miR-9-2 level, change” value in the assay with pri-miR-9-2 is given as “Neither pri-miR-9-2 (FIG. 12B) nor pri-miR-9-3 level (FIG. 12C) was significantly altered; also recorded: Neither pri-miR-9-2 (FIG. 29B) nor pri-miR-9-3 level (FIG. 29C) was significantly altered”. For the same compound, the “fold enrichment of NFATc1 over miR-9-1 promoter region” value with miR-9-1 promoter (30 mg/kg BW−1, 2 hrs) is “without significant effect”.

`CC(C)(Cc1ccc2ccccc2c1)NC[C@@H](O)COc1cccc(Cl)c1C#N` [NPS2143]: the “claudin-14 mRNA levels, reduction (dose response)” value in the assay with claudin-14 mRNA (15 mg/kg BW−1, 2 hrs) is reported as 45%; in the assay on claudin-14 mRNA (30 mg/kg BW−1, 2 hrs), 82%; with claudin-14 mRNA (45 mg/kg BW−1, 2 hrs), 89%. The “claudin-14 mRNA, change” value with claudin-14 mRNA was “Neither NPS2143 nor cinacalcet caused changes”. The “claudin-14 gene expression, downregulation” value in the assay with claudin-14 mRNA (setting [1]) came to 35%. For the same compound, the “claudin-14 mRNA levels, change” value in the assay with claudin-14 mRNA (setting [2]) is “failed to elicit any significant change”. In addition, in the assay with claudin-14 mRNA (setting [3]), the “claudin-14 mRNA levels, reduction” value amounted to 77%. For the same compound, the “claudin-14 mRNA level, downregulation” value in the assay on claudin-14 mRNA (single oral dose 30 mg/kg BW−1, 2 hrs, versus vehicle) is given as 80%. The “claudin-14 mRNA, percent of control level” value in the assay with claudin-14 mRNA (single oral dose 30 mg/kg BW−1, 4 hrs) is 78%. Further, in the assay on claudin-14 mRNA (setting [4]), the “claudin-14 mRNA relative to control level” value is recorded as “completely recovered to its control level; also recorded: no significant change”. Further, the “pri-miR-9-2 level, change” value in the assay on pri-miR-9-2 is “Neither pri-miR-9-2 (FIG. 12B) nor pri-miR-9-3 level (FIG. 12C) was significantly altered; also recorded: Neither pri-miR-9-2 (FIG. 29B) nor pri-miR-9-3 level (FIG. 29C) was significantly altered”. For the same compound, in the assay on miR-9-1 promoter (30 mg/kg BW−1, 2 hrs, higher than vehicle level), the “H3K9 and H3K14 acetylation levels, miR-9-1 promoter region” value was determined as 2.43 fold. Moreover, in the assay with miR-9-1 promoter (30 mg/kg BW−1, 2 hrs), the “fold enrichment of NFATc1 over miR-9-1 promoter region” value stood at 3.55 fold.

Consider `O=C(CCCCCCC(=O)Nc1ccccc1)NO` [SAHA, Suberanilohydroxamic acid], for which the “CLDN14 mRNA, dose response” value with claudin-14 mRNA (5 mg/kg to 25 mg/kg, 4 hrs) was “downregulation of CLDN14 at dosage as low as 5 mg/kg”. Also, in the assay on claudin-14 mRNA (25 mg/kg BW−1, 12 hrs), the “effects on CLDN14 mRNA in the kidney” value is “dissipated”. Also, in the assay on claudin-14 mRNA (25 mg/kg BW−1, by 4 hrs and through to at least 8 hrs), the “reduction of CLDN14 expression in the kidney” value is reported as “persisted”. The “CLDN14 mRNA levels in the kidney, reduction” value with claudin-14 mRNA (single dose 25 mg/kg BW−1, 2 hrs) worked out at 56%. Moreover, in the assay with miR-9-1 promoter (25 mg/kg BW−1, 4 hrs), the “H3K9 and H3K14 acetylation, miR-9-1 promoter, increase” value came to 2.40 fold; the “NFAT binding to miR-9-1 promoter” value was “not affected”.

The values above are taken from patent publication US20140242609A1, “Diagnosis and treatment of kidney stones, methods and compositions therefor” (Washington University, priority 2013, published 2014).
